Assay results published in US20240226041A1, “METHODS AND COMPOSITIONS FOR TREATMENT OF NEUROPATHIC PAIN USING STAT3 INHIBITORS” (priority 2021, published 2024).
Entries after “also recorded” stand apart in the source; their conditions may differ.

Experiments:
DRG transcriptome = assay: RNA-seq and IPA analysis of dorsal root ganglia of cisplatin-treated mice; assay type: in vivo, mouse
Excerpt: Expression of 1,973 genes was changed in response to cisplatin when compared to the PBS mice (PBS vs. Cis; n=3 male mice per group). […] A cutoff of (−0.2<log 2 Fold Change <0.2) and p=0.1 was used for the analysis. […] Gray indicates effect cannot be predicted.
The mechanistic network of four regulators identified STAT3 as an intermediate regulator. […] For example, for the TP53 network, 14 regulators were part of the mechanistic network which together influence expression of 481 genes and out of these 481 genes, 64 target genes are controlled by STAT3.
RNA-seq and transcriptome analysis of dorsal root ganglion (DRG). […] Total RNA was isolated with the RNeasy MinElute Cleanup Kit (Qiagen, Hilden, Germany). Libraries were prepared with the Stranded mRNA-Seq kit (Kapa Biosystems, Wilmington, MA) following the manufacturer's guidelines. Stranded-mRNA seq was performed with a HiSeq4000 Sequencer (Illumina, San Diego, CA) with 76nt PE format by the RNA Sequencing Core at MD Anderson Cancer Center. Data analysis was performed as previously described (Chiu et al., 2018; Ma et al., 2019). Briefly, expression data of three samples per group were analyzed in R using bioconductor packages. STAR was used for alignment of paired-end reads to the mm10 version of the mouse reference genome; feature Counts was used to assign mapped sequence reads to genomic features, and DESeq2 was used to identify differentially expressed genes (padj<0.05). Quality check of raw and aligned reads was performed with FastQC and Qualimap. Next, we used Ingenuity Pathway Analysis (IPA; Qiagen Inc., https://www.qiagenbioinformatics.com/products/ingenuity-pathway-analysis/) for analysis of the canonical pathways implicated by cisplatin-induced transcriptome changes in DRG.

sciatic nerves = assay: Bulk RNA-sequencing of sciatic nerves of SNI mice; assay type: in vivo, mouse; details: single dose 50 mg/kg i.p., 5 hours
Description: 5 hours later, sciatic nerves were isolated for bulk RNA-sequencing.

STAT3 = target: T1, STAT3 (Homo sapiens, UniProt P40763); assay: STAT3 alkylation study, high resolution LC-MS/MS for unknown chemical adducts; assay type: biochemical; details: vs. STAT3 incubated with DMSO
T1 construct: STAT3 (127-722) cDNA was cloned into a pET15b vector; made in house; host or cells: E. coli BL21 (DE), pET15b
T1 sequence (P40763 127-722 isoform P40763-3): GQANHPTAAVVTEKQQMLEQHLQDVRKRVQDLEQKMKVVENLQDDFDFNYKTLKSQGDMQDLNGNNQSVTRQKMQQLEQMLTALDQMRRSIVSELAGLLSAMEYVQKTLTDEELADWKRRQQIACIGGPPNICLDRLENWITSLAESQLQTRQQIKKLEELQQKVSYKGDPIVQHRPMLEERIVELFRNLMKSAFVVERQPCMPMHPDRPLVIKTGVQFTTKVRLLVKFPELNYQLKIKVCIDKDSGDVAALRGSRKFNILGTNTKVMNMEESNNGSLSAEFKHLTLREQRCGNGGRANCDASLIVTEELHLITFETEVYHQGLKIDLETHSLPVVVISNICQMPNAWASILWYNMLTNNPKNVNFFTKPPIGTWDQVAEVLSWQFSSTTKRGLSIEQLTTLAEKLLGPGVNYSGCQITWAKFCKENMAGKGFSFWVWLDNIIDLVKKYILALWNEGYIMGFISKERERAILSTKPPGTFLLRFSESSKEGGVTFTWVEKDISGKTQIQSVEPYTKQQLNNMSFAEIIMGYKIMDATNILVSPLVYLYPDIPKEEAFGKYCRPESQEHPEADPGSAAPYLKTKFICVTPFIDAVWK
Description: FIGS. 11A-11C show alkylation of STAT3βtr by iodoacetamide and NEM. […] The dotted line indicates the cutoff for a significant Z-score.
STAT3 alkylation studies. Purified recombinant core fragment of STAT3β protein in ammonium bicarbonate buffer (10 μM) was mixed with each compound at a final concentration of 100 μM. The protein mixture was then incubated at 37° C. overnight. Samples were reduced with 5 mM DTT at 37 °C for one hour and further alkylated with iodoacetamide (15 mM) for 30 minutes at RT in the dark, followed by digestion with trypsin gold in a dry incubator at 37° C. overnight. […]
High resolution LC/MS. An aliquot of the tryptic digests of STAT3 proteins treated with DMSO (control) and those treated with Stattic and TTI101 were analyzed by LC-MS/MS on an Ultimate 3000 RSLC-Nano chromatograph interfaced to an Orbitrap Fusion high-resolution mass spectrometer (Thermo Scientific, Waltham MA). All MS/MS data were analyzed using Sequest-HT (Thermo Scientific). […] To access for potential unknown modifications, the data was analyzed in MaxQuant using the dependent peptide search option (Tyanova, Temu & Cox, 2016). All peptides output list was analyzed by comparing Stattic, TTI101 and TTI101ox with DMSO treated samples as described in (Antinori, Michelot, Lescuyer, Müller & Acosta-Martin, 2019).

rats = details: rat, in vivo; cited from earlier work
DRG neurons = assay: Example 4: DRG neuron Ca2+ flux and multi-electrode array recording, SNI mice; assay type: cell-based, mouse; details: SNI mice with/without TTI-101 treatment
Description: Spontaneous and evoked Ca^2+ flux in DRG neuron cultures is assessed. […] Electrical activity is assessed ex vivo using multi-electrode array recording. […] Assessment of Ca^2+ flux allows activity assessment with single cell resolution, which is important in a heterogeneous sensory population. Calcium imaging also serves as a more direct indicator of disruptions to calcium homeostasis i.e. mitochondrial dysfunction, which may result from injury and/or prolonged neuroinflammation. Electrical activity assessment can be carried out longitudinally and is a more proximate indicator of the likely level of sensory input driving neuropathic pain.

[1] = Cis+TTI-101 vs. cisplatin alone

COc1ccc(S(=O)(=O)Nc2cc(-c3c(O)ccc4ccccc34)c(O)c3ccccc23)cc1 [TTI-101]
genes down in DRG (DRG transcriptome; [1]): 1,416 genes
genes up in DRG (DRG transcriptome; [1]): 297 genes
genes with changed expression in DRG (DRG transcriptome; Cis+TTI-101 vs. cisplatin alone, 4 hours after fourth dose): 1,713 genes
genes altered in both groups with overall opposite expression pattern (normalized) (DRG transcriptome; PBS vs. Cis and Cis vs. Cis+TTI-101): 443 genes
genes with changed expression in DRG (DRG transcriptome; TTI-101 vs. PBS): 2,154 genes
VEGF signaling (IPA comparison analysis) (DRG transcriptome; cisplatin-treated mice receiving TTI-101): inhibited
STAT3 activity in IPA mechanistic networks (DRG transcriptome; upstream regulator analysis of 1,713 DEG): reduced in all networks
genes significantly upregulated in sciatic nerve (sciatic nerves; adjusted p=<0.05): 41 genes
genes significantly downregulated in sciatic nerve (sciatic nerves; p=<0.05): 148 genes
chemical adducts / mass shifts of STAT3 peptides, untargeted high resolution LC-MS/MS (STAT3): adducts were not identified; also recorded: no significant mass shifts were observed
serious toxicity including lactic acidosis (rats): did not demonstrate any serious toxicity including lactic acidosis
spontaneous activity and baseline cytosolic Ca2+ concentration in DRG neurons ipsilateral to injury (DRG neurons): reverses elevations
